Reference: paper PMC7496268, “Activity‐Directed Synthesis of Inhibitors of the p53/hDM2 Protein–Protein Interaction” (Chemistry (Weinheim an Der Bergstrasse, Germany), 2020)

Each compound was assayed against T1, hDM2 (Homo sapiens, UniProt Q00987) (assay: fluorescence anisotropy competition, displacement of fluorescein-labelled p53 tracer peptide). Conditions: read-out: Fluorescence anisotropy^[c] IC50.
T1 construct: gene MDM2; 15N-labelled for NMR; the anisotropy footnote prints hDM2_17-25, apparently a misprint of 17-125
Type: binding
Text: fluorescence anisotropy competition, displacement of fluorescein-labelled p53 tracer peptide on hDM2

Compound | IC50
O=C(COC1CCc2cc(Cl)ccc21)N1CCC(c2ccccc2)C1 (centres unmarked) [P2] | 15 ± 0.1 µM
CN1C(=O)C(c2ccc(Cl)cc2)c2cc(Cl)ccc21 (centres unmarked) [P3] | > 100 µM
CN(C(=O)C(=O)c1ccc(Cl)cc1)c1ccc(Cl)cc1 [P4] | > 30 µM
O=C1Nc2cc(Cl)ccc2C1c1c[nH]c2cc(Cl)ccc12 (centres unmarked) [P6] | 0.94 ± 0.03 µM
CCOCC1CC12C(=O)Nc1cc(Cl)ccc12 (centres unmarked) [P7] | > 160 µM

Same assay, conditions: […] hDM2, […] tracer, […] BSA, […] NaCl, […] DMSO, […] phosphate pH […] h; unreliable (limited solubility)

Compound | Fluorescence anisotropy^[c] IC50 [μM]
O=C1Nc2cc(Cl)ccc2C12CC2c1ccc(Cl)cc1 (centres unmarked) [P5] | ~ 10 μM

These compounds were tested against T1, hDM2 (assay: biochemical). Conditions: read-out: FA IC50.
Parameters: fluorescence anisotropy competition, displacement of fluorescein-labelled p53 15-31 peptide from hDM2
Protocol: The assay was then implemented similarly to the examples above to give final compound concentrations between 160 – 0.08 µM. IC50 values were determined and curves were fit in Origin Pro 2019b using a non-linear curve fitting with the dose response fitting procedure and Levenberg Marquardt iteration algorithm. 17 5.2 Fluorescence anisotropy assays The fluorescein-labelled p5315-31 Flu transactivation domain peptide (Ac-[…](Flu)- NH2) was purchased from Peptide Synthetics. The assay was carried out using Perkin-Elmer 384-well Opti-plate assay plates (6007270). Fluorescence anisotropy assays were performed in a buffer containing 40 mM phosphate pH 7.5, 200 mM NaCl and 0.02 mg/mL bovine serum albumin (PBSA). Results were collected using a Perkin-Elmer Envision 2103 Multilabel Reader using a 431 nm mirror, 480(104) nm excitation filter, and 535(208) and 535(209) nm emission filters after 2.5 or 24 hours of incubation at room temperature. Test well anisotropy values were then calculated using the blank corrected S and P channel values using the following formula: […]

Compound | IC50
O=C(CO[C@@H]1CCc2cc(Cl)ccc21)N1CC[C@@H](c2ccccc2)C1 [P2a] | 28.2 ± 3 µM
O=C(CO[C@H]1CCc2cc(Cl)ccc21)N1CC[C@@H](c2ccccc2)C1 [P2b] | 36.5 ± 3.5 µM
O=C(COC1CCCC1)N1CCC(c2ccccc2)C1 (centres unmarked) [SI1] | > 200 µM
O=C(COC1CCc2cc(Cl)ccc21)N1CCCC1 (centres unmarked) [SI2] | > 200 µM
O=C(CO[C@H]1CCc2cc(Cl)ccc21)N1CC[C@H](c2ccccc2)C1 [ent-P2a] | 26 ± 3.8 µM
O=C(CO[C@@H]1CCc2cc(Cl)ccc21)N1CC[C@H](c2ccccc2)C1 [ent-P2b] | 28.6 ± 2.9 µM

Each compound was assayed against T1, hDM2 (assay: 1H-15N HSQC NMR titration). Conditions: read-out: NMR Binding^[d] (K d/μM).
Text: 1H-15N HSQC NMR titration on hDM2

Compound | Kd
O=C(COC1CCc2cc(Cl)ccc21)N1CCC(c2ccccc2)C1 (centres unmarked) [P2] | 34 ± 13 µM
CN(C(=O)C(=O)c1ccc(Cl)cc1)c1ccc(Cl)cc1 [P4] | 35 ± 16 µM
